Experimental data as given in ChEMBL document CHEMBL1177794, “Broad spectrum alkynyl inhibitors of T315I Bcr-Abl” (Bioorg Med Chem Lett, 2010).

Tests used:
[1] = tested on: Tyrosine-protein kinase ABL1 (Homo sapiens), P00519 [F317L]; assay: Inhibition of non phosphorylated ABL1 F317L mutant at 10 uM; conditions: values are per cent of control
[2] = tested on: Tyrosine-protein kinase ABL1 (Homo sapiens), P00519 [H396P]; assay: Inhibition of non phosphorylated ABL1 H396P mutant at 10 uM; conditions: values are per cent of control
[3] = tested on: Tyrosine-protein kinase ABL1 (Homo sapiens), P00519 [H396P]; assay: Inhibition of phosphorylated ABL1 H396P mutant at 10 uM; conditions: values are per cent of control
[4] = biological target: RAC-beta serine/threonine-protein kinase (Homo sapiens) (UniProt P31751); assay: Inhibition of AKT2 at 10 uM; conditions: values are per cent of control
[5] = biological target: Ankyrin repeat and protein kinase domain-containing protein 1 (Homo sapiens) (UniProt Q8NFD2); assay: Inhibition of ANKK1 at 10 uM; conditions: values are per cent of control
[6] = biological target: Calcium/calmodulin-dependent protein kinase type 1G (Homo sapiens) (UniProt Q96NX5); assay: Inhibition of CAMK1G at 10 uM; conditions: values are per cent of control
Sequence of Calcium/calmodulin-dependent protein kinase type 1G (Homo sapiens) (Q96NX5 whole entry): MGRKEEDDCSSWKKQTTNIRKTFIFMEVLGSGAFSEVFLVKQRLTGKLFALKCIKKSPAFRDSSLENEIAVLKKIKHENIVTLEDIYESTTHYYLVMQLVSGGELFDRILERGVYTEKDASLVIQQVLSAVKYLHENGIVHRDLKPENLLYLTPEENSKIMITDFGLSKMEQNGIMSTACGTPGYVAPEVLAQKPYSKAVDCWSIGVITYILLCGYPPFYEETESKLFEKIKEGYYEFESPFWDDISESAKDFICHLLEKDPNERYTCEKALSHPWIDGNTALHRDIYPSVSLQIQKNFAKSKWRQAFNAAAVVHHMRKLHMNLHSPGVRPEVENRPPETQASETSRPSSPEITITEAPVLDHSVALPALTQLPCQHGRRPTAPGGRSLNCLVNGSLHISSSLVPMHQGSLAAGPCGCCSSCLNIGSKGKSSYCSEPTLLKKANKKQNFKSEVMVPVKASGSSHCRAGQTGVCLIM

[7] = biological target: Calcium/calmodulin-dependent protein kinase type IV (Homo sapiens) (UniProt Q16566); assay: Inhibition of CAMK4 at 10 uM; conditions: values are per cent of control
[8] = biological target: Cyclin-dependent kinase-like 1 (Homo sapiens) (UniProt Q00532); assay: Inhibition of CDKL1 at 10 uM; conditions: values are per cent of control
Sequence of Cyclin-dependent kinase-like 1 (Homo sapiens) (Q00532 whole entry): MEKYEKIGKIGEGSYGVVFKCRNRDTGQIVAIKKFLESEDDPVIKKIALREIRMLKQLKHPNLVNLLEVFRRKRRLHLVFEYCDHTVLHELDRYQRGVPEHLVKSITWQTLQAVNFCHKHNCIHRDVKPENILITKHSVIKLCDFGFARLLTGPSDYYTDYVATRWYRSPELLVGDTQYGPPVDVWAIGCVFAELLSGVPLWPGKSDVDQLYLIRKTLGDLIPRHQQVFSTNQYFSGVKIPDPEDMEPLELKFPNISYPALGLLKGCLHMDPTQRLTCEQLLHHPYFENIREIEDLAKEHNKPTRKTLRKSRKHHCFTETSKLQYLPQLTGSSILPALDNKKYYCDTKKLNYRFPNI

[9] = biological target: Cyclin-dependent kinase-like 3 (Homo sapiens) (UniProt Q8IVW4); assay: Inhibition of CDKL3 at 10 uM; conditions: values are per cent of control
[10] = biological target: Dual specificity protein kinase CLK4 (Homo sapiens) (UniProt Q9HAZ1); assay: Inhibition of CLK4 at 10 uM; conditions: values are per cent of control
[11] = biological target: Death-associated protein kinase 2 (Homo sapiens) (UniProt Q9UIK4); assay: Inhibition of DAPK2 at 10 uM; conditions: values are per cent of control
Sequence of Death-associated protein kinase 2 (Homo sapiens) (Q9UIK4 whole entry, looked up): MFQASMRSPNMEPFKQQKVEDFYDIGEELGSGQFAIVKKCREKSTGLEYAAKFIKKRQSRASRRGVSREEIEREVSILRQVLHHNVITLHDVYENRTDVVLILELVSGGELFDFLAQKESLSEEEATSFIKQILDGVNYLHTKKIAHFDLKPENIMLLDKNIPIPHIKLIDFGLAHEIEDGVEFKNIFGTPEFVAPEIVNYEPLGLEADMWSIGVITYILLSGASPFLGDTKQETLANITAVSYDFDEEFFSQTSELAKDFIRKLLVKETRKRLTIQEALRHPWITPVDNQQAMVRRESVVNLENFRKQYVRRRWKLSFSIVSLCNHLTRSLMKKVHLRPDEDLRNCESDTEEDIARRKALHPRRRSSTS

[12] = biological target: Serine/threonine-protein kinase DCLK3 (Homo sapiens) (UniProt Q9C098); assay: Inhibition of DCAMKL3 at 10 uM; conditions: values are per cent of control
Sequence of Serine/threonine-protein kinase DCLK3 (Homo sapiens) (Q9C098 whole entry): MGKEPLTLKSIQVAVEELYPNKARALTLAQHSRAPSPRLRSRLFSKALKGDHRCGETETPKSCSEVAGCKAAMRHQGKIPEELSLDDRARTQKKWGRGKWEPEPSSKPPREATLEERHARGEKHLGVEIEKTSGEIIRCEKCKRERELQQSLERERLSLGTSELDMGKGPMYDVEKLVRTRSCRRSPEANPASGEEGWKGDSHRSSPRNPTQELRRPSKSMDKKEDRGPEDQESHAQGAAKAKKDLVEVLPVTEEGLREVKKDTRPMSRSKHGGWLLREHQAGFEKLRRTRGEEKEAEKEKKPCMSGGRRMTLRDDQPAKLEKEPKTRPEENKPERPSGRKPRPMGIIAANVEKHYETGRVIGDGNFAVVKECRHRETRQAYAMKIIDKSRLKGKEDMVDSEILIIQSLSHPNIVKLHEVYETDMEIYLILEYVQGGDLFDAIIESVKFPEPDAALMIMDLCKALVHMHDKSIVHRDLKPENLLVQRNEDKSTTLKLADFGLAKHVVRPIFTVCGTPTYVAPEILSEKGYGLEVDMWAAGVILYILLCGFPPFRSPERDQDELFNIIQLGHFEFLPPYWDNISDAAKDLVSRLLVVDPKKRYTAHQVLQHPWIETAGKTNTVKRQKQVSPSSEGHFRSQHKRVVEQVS

[13] = biological target: Dual specificity tyrosine-phosphorylation-regulated kinase 1A (Homo sapiens) (UniProt Q13627); assay: Inhibition of DYRK1A at 10 uM; conditions: values are per cent of control
[14] = biological target: Mitogen-activated protein kinase 4 (Homo sapiens) (UniProt P31152); assay: Inhibition of ERK4 at 10 uM; conditions: values are per cent of control
Sequence of Mitogen-activated protein kinase 4 (Homo sapiens) (P31152 whole entry): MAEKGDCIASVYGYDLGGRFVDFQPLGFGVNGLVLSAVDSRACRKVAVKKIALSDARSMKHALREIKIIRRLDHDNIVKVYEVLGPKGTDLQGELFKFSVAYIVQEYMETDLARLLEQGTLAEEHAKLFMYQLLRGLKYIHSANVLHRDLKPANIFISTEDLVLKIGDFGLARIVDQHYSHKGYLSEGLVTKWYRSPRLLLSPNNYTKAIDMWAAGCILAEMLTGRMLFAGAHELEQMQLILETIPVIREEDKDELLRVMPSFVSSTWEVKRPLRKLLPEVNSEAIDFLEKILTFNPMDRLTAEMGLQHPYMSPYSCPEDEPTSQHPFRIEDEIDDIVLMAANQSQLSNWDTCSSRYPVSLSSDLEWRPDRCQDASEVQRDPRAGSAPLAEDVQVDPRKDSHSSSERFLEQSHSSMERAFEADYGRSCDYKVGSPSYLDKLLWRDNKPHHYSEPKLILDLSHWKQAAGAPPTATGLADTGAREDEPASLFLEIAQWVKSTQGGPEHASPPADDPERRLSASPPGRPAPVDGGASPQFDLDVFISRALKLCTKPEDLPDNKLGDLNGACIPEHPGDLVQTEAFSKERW

[15] = tested on: Receptor-type tyrosine-protein kinase FLT3 (Homo sapiens), P36888 [K663Q]; assay: Inhibition of FLT3 K663Q mutant at 10 uM; conditions: values are per cent of control
[16] = biological target: Inhibitor of nuclear factor kappa-B kinase subunit alpha (Homo sapiens) (UniProt O15111); assay: Inhibition of IKK-alpha at 10 uM; conditions: values are per cent of control
[17] = tested on: Mast/stem cell growth factor receptor Kit (Homo sapiens), P10721 [D816H]; assay: Inhibition of KIT D816H mutant at 10 uM; conditions: values are per cent of control
[18] = biological target: LIM domain kinase 1 (Homo sapiens) (UniProt P53667); assay: Inhibition of LIMK1 at 10 uM; conditions: values are per cent of control
[19] = biological target: Mitogen-activated protein kinase kinase kinase 4 (Homo sapiens) (UniProt Q9Y6R4); assay: Inhibition of MAP3K4 at 10 uM; conditions: values are per cent of control
[20] = biological target: MAP/microtubule affinity-regulating kinase 3 (Homo sapiens) (UniProt P27448); assay: Inhibition of MARK3 at 10 uM; conditions: values are per cent of control
[21] = biological target: Serine/threonine-protein kinase MRCK alpha (Homo sapiens) (UniProt Q5VT25); assay: Inhibition of MRCKA at 10 uM
[22] = biological target: Serine/threonine-protein kinase 3 (Homo sapiens) (UniProt Q13188); assay: Inhibition of MST2 at 10 uM
[23] = biological target: Serine/threonine-protein kinase NIM1 (Homo sapiens) (UniProt Q8IY84); assay: Inhibition of NIM1 at 10 uM
Sequence of Serine/threonine-protein kinase NIM1 (Homo sapiens) (Q8IY84 whole entry): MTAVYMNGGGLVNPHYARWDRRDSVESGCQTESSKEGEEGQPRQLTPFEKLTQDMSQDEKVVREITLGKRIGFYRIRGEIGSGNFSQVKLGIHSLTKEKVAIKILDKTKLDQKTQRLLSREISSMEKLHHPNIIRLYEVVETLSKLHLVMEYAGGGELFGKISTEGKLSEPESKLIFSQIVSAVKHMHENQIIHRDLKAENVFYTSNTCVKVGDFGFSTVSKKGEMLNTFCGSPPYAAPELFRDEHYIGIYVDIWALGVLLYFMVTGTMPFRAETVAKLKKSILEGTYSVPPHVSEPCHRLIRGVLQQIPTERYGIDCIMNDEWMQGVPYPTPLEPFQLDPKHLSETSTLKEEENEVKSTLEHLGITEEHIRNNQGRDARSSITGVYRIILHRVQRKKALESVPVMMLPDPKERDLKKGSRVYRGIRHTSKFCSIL

[24] = biological target: Serine/threonine-protein kinase PAK 4 (Homo sapiens) (UniProt O96013); assay: Inhibition of PAK4 at 10 uM
[25] = biological target: Serine/threonine-protein kinase 32C (Homo sapiens) (UniProt Q86UX6); assay: Inhibition of YANK3 at 10 uM; conditions: values are per cent of control
[26] = biological target: Phosphatidylinositol 4-phosphate 3-kinase C2 domain-containing subunit beta (Homo sapiens) (UniProt O00750); assay: Inhibition of PIK3C2B at 10 uM
[27] = tested on: Phosphatidylinositol 4,5-bisphosphate 3-kinase catalytic subunit alpha isoform (Homo sapiens), P42336 [H1047Y]; assay: Inhibition of PIK3CA H1047Y mutant at 10 uM
[28] = tested on: Phosphatidylinositol 4,5-bisphosphate 3-kinase catalytic subunit alpha isoform (Homo sapiens), P42336 [I800L]; assay: Inhibition of PIK3CA I800L mutant at 10 uM
[29] = biological target: Serine/threonine-protein kinase PLK2 (Homo sapiens) (UniProt Q9NYY3); assay: Inhibition of PLK2 at 10 uM; conditions: values are per cent of control
[30] = biological target: Serine/threonine-protein kinase PLK4 (Homo sapiens) (UniProt O00444); assay: Inhibition of PLK4 at 10 uM
Sequence of Serine/threonine-protein kinase PLK4 (Homo sapiens) (O00444 whole entry): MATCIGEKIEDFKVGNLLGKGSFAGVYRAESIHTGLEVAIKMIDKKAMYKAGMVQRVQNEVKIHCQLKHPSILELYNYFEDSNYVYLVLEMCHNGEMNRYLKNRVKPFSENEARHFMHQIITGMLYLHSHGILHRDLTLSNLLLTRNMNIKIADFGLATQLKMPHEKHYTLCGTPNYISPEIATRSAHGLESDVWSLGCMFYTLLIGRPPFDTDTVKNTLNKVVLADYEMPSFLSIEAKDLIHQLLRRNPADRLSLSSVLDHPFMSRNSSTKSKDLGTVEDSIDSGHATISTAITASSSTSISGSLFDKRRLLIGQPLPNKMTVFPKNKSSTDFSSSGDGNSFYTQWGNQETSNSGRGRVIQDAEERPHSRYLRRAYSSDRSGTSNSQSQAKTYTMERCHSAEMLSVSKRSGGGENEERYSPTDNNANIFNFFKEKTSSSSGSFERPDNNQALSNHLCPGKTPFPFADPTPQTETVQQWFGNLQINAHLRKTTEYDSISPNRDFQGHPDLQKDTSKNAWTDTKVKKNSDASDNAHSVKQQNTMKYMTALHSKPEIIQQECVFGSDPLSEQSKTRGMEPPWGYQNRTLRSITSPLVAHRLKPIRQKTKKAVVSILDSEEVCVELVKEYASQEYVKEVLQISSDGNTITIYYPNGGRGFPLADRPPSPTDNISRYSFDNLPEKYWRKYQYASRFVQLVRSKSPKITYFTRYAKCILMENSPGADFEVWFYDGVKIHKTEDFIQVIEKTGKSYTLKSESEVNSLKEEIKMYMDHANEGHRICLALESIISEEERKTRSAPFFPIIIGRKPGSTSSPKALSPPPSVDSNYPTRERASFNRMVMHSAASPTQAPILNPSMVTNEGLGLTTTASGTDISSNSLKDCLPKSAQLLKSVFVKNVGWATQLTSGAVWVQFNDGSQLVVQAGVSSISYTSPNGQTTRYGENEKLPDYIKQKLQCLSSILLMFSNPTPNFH

[31] = biological target: Serine/threonine-protein kinase D3 (Homo sapiens) (UniProt O94806); assay: Inhibition of PRKD3 at 10 uM
[32] = biological target: Ribosomal protein S6 kinase alpha-3 (Homo sapiens) (UniProt P51812); assay: Inhibition of RSK2 N-terminal domain1 at 10 uM
[33] = biological target: Ribosomal protein S6 kinase alpha-2 (Homo sapiens) (UniProt Q15349); assay: Inhibition of RSK3 N-terminal domain1 at 10 uM
[34] = biological target: SNF-related serine/threonine-protein kinase (Homo sapiens) (UniProt Q9NRH2); assay: Inhibition of SNRK at 10 uM
[35] = biological target: Tyrosine-protein kinase BTK (Homo sapiens) (UniProt Q06187); assay: Inhibition of BTK at 10 uM; values are per cent of control
[36] = biological target: NUAK family SNF1-like kinase 1 (Homo sapiens) (UniProt O60285); assay: Inhibition of ARK5 at 10 uM; values are per cent of control
[37] = biological target: Myosin light chain kinase, smooth muscle (Homo sapiens) (UniProt Q15746); assay: Inhibition of MLCK at 10 uM; values are per cent of control
[38] = biological target: Mitogen-activated protein kinase kinase kinase 7 (Homo sapiens) (UniProt O43318); assay: Inhibition of TAK1 at 10 uM; values are per cent of control
[39] = biological target: Serine/threonine-protein kinase LATS2 (Homo sapiens) (UniProt Q9NRM7); assay: Inhibition of LATS2 at 10 uM; values are per cent of control
[40] = biological target: Platelet-derived growth factor receptor beta (Homo sapiens) (UniProt P09619); assay: Inhibition of PDGFRB at 10 uM; values are per cent of control
Sequence of Platelet-derived growth factor receptor beta (Homo sapiens) (P09619 whole entry): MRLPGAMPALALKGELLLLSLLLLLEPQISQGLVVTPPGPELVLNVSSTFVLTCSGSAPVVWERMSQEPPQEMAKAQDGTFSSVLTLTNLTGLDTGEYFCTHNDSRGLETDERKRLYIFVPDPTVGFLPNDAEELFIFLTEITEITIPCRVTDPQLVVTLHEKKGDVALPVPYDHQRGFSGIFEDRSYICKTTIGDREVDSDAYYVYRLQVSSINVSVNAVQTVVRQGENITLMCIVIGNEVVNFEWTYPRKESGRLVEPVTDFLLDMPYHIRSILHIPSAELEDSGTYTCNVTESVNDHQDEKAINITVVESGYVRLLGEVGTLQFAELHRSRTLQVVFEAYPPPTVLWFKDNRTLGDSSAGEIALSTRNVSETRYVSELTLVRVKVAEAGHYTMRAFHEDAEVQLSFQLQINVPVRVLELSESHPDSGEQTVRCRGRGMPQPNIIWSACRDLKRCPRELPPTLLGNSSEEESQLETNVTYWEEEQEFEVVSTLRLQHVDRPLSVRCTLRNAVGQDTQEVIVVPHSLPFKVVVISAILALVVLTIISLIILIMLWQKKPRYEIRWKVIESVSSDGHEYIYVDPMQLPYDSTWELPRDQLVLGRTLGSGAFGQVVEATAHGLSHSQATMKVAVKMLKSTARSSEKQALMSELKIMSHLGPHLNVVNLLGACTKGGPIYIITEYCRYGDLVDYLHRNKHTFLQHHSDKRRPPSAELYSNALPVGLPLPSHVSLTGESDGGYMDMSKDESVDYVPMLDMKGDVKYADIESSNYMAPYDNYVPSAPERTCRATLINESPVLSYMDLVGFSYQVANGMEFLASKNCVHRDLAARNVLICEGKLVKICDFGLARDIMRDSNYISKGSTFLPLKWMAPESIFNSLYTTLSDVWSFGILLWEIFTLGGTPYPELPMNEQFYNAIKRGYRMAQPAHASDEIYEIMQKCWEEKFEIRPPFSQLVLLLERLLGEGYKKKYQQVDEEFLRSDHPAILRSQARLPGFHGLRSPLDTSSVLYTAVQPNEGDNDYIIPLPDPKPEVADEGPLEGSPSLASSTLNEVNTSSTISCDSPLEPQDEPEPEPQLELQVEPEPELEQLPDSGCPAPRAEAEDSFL

[41] = biological target: Serine/threonine-protein kinase DCLK1 (Homo sapiens) (UniProt O15075); assay: Inhibition of DCAMKL1 at 10 uM; values are per cent of control
[42] = tested on: Proto-oncogene tyrosine-protein kinase receptor Ret (Homo sapiens), P07949 [V804M]; assay: Inhibition of RET V804M mutant at 10 uM; values are per cent of control

CCN1CCN(Cc2ccc(NC(=O)c3ccc(C)c(C#Cc4cccnc4)c3)cc2C(F)(F)F)CC1 gave a residual binding, % of control [1] of 0%, a residual binding, % of control [2] of 0% and a residual binding, % of control [3] of 0%. The residual binding, % of control [4] was 30%, the residual binding, % of control [5] was 8.2% and the residual binding, % of control [6] was 100%. The residual binding, % of control [7] was 100%, the residual binding, % of control [8] was 88% and the residual binding, % of control [9] was 0.65%. For the same molecule, the residual binding, % of control [10] was 15%, the residual binding, % of control [11] was 100% and the residual binding, % of control [12] was 100%. It also gave a residual binding, % of control [13] of 60%, a residual binding, % of control [14] of 100% and a residual binding, % of control [15] of 0%. For the same molecule, the residual binding, % of control [16] was 0%, the residual binding, % of control [17] was 6% and the residual binding, % of control [18] was 3%. For the same molecule, the residual binding, % of control [19] was 100%, the residual binding, % of control [20] was 69% and the inhibition [21] was 87%. For the same molecule, the inhibition [22] was 53%, the inhibition [23] was 97% and the inhibition [24] was 100%. For the same molecule, the residual binding, % of control [25] was 75%, the inhibition [26] was 100% and the inhibition [27] was 81%. It also gave an inhibition [28] of 72%, a residual binding, % of control [29] of 100% and an inhibition [30] of 88%. For the same molecule, the inhibition [31] was 22%, the inhibition [32] was 16% and the inhibition [33] was 9.5%. For the same molecule, the inhibition [34] was 34%, the level, % of control [35] was 2% and the level, % of control [36] was 100%. The % of control [37] was 60%, the % of control [38] was 0.2% and the level, % of control [39] was 7.6%. For the same molecule, the level, % of control [40] was 0%, the level, % of control [41] was 95% and the level, % of control [42] was 0%.
CCN1CCN(Cc2ccc(NC(=O)c3ccc(C)c(C#Cc4cnc5[nH]ccc5c4)c3)cc2C(F)(F)F)CC1 showed a residual binding, % of control [1] of 0%, a residual binding, % of control [2] of 0.05% and a residual binding, % of control [3] of 0.05%. The residual binding, % of control [4] was 4.6%, the residual binding, % of control [5] was 7.1% and the residual binding, % of control [6] was 92%. For the same molecule, the residual binding, % of control [7] was 100%, the residual binding, % of control [8] was 89% and the residual binding, % of control [9] was 1.9%. The residual binding, % of control [10] was 32%, the residual binding, % of control [11] was 100% and the residual binding, % of control [12] was 100%. The residual binding, % of control [13] was 100%, the residual binding, % of control [14] was 26% and the residual binding, % of control [15] was 0%. For the same molecule, the residual binding, % of control [16] was 0.45%, the residual binding, % of control [17] was 8.2% and the residual binding, % of control [18] was 1.2%. The residual binding, % of control [19] was 62%, the residual binding, % of control [20] was 42% and the inhibition [21] was 73%. For the same molecule, the inhibition [22] was 26%, the inhibition [23] was 98% and the inhibition [24] was 87%. For the same molecule, the residual binding, % of control [25] was 83%, the inhibition [26] was 100% and the inhibition [27] was 82%. It also gave an inhibition [28] of 100%, a residual binding, % of control [29] of 100% and an inhibition [30] of 97%. It also gave an inhibition [31] of 6.4%, an inhibition [32] of 2.8% and an inhibition [33] of 0.7%. For the same molecule, the inhibition [34] was 60%, the level, % of control [35] was 1.2% and the level, % of control [36] was 95%. The % of control [37] was 18%, the % of control [38] was 0.25% and the level, % of control [39] was 7%. It also gave a level, % of control [40] of 0%, a level, % of control [41] of 100% and a level, % of control [42] of 0%.
